# Results from ChEMBL document CHEMBL5236661, “A new selective inhibitor for IMP-1 metallo-β-lactamase, 3Z,5E-octa-3,5-diene-1,3,4-tricarboxylic acid-3,4-anhydride” (Bioorg Med Chem, 2023).
# The source made the active and inactive calls. The calls are words filed in the database; no cut-off is given here.
# Tests used:
# Pseudomonas aeruginosa [1] = test: Antibacterial activity against Pseudomonas aeruginosa KB367 expressing IMP-1 assessed as inhibition of bacterial growth at 0.03 ug in absence of meropenem incubated overnight by paper disk method; format: functional, organism-based; conditions: dose 0.03 µg
# Escherichia coli [2] = test: Antibacterial activity against Escherichia coli KB366 expressing IMP-1 assessed as inhibition of bacterial growth at 1 ug in presence of meropenem incubated overnight by paper disk method; format: functional; conditions: read-out: IZ
# Escherichia coli [3] = test: Antibacterial activity against Escherichia coli KB366 expressing IMP-1 assessed as inhibition of bacterial growth at 0.1 ug in absence of meropenem incubated overnight by paper disk method; format: functional, organism-based; conditions: dose 0.1 µg
# Pseudomonas aeruginosa [4] = test: Antibacterial activity against Pseudomonas aeruginosa KB367 expressing IMP-1 assessed as inhibition of bacterial growth at 0.03 ug in presence of meropenem incubated overnight by paper disk method; format: functional, organism-based; conditions: dose 0.03 µg
# Pseudomonas aeruginosa [5] = test: Antibacterial activity against Pseudomonas aeruginosa KB367 expressing IMP-1 assessed as inhibition of bacterial growth at 0.01 ug in absence of meropenem incubated overnight by paper disk method; format: functional, organism-based; conditions: dose 0.01 µg
# Escherichia coli [6] = test: Antibacterial activity against Escherichia coli KB366 expressing IMP-1 assessed as inhibition of bacterial growth at 100 ug in absence of meropenem incubated overnight by paper disk method; format: functional, organism-based; conditions: dose 100.0 µg
# Pseudomonas aeruginosa [7] = test: Antibacterial activity against Pseudomonas aeruginosa KB367 expressing IMP-1 assessed as inhibition of bacterial growth at 3 ug in presence of meropenem incubated overnight by paper disk method; format: functional; conditions: read-out: IZ
# Escherichia coli [8] = test: Antibacterial activity against Escherichia coli KB366 expressing IMP-1 assessed as inhibition of bacterial growth at 0.03 ug in presence of meropenem incubated overnight by paper disk method; format: functional; conditions: read-out: IZ
# Pseudomonas aeruginosa [9] = test: Antibacterial activity against Pseudomonas aeruginosa KB367 expressing IMP-1 assessed as inhibition of bacterial growth at 1 ug in presence of meropenem incubated overnight by paper disk method; format: functional; conditions: for zone of inhibition at 1 µg/disc: read-out: IZ
# Pseudomonas aeruginosa [10] = test: Antibacterial activity against Pseudomonas aeruginosa KB367 expressing IMP-1 assessed as inhibition of bacterial growth at 100 ug in presence of meropenem incubated overnight by paper disk method; format: functional; conditions: read-out: IZ
# Pseudomonas aeruginosa [11] = test: Antibacterial activity against Pseudomonas aeruginosa KB367 expressing IMP-1 assessed as inhibition of bacterial growth at 3 ug in absence of meropenem incubated overnight by paper disk method; format: functional, organism-based; conditions: dose 3.0 µg
# Escherichia coli [12] = test: Antibacterial activity against Escherichia coli KB366 expressing IMP-1 assessed as inhibition of bacterial growth at 0.03 ug in absence of meropenem incubated overnight by paper disk method; format: functional, organism-based; conditions: dose 0.03 µg
# Pseudomonas aeruginosa [13] = test: Antibacterial activity against Pseudomonas aeruginosa KB367 expressing IMP-1 assessed as inhibition of bacterial growth at 0.01 ug in presence of meropenem incubated overnight by paper disk method; format: functional, organism-based; conditions: dose 0.01 µg
# Escherichia coli [14] = test: Antibacterial activity against Escherichia coli KB366 expressing IMP-1 assessed as inhibition of bacterial growth at 30 ug in absence of meropenem incubated overnight by paper disk method; format: functional, organism-based; conditions: dose 30.0 µg
# Pseudomonas aeruginosa [15] = test: Antibacterial activity against Pseudomonas aeruginosa KB367 expressing IMP-1 assessed as inhibition of bacterial growth at 30 ug in presence of meropenem incubated overnight by paper disk method; format: functional; conditions: read-out: IZ
# Escherichia coli [16] = test: Antibacterial activity against Escherichia coli KB366 expressing IMP-1 assessed as inhibition of bacterial growth at 0.1 ug in presence of meropenem incubated overnight by paper disk method; format: functional; conditions: read-out: IZ
# Escherichia coli [17] = test: Antibacterial activity against Escherichia coli KB366 expressing IMP-1 assessed as inhibition of bacterial growth at 30 ug in presence of meropenem incubated overnight by paper disk method; format: functional; conditions: read-out: IZ
# Escherichia coli [18] = test: Antibacterial activity against Escherichia coli KB366 expressing IMP-1 assessed as inhibition of bacterial growth at 0.3 ug in presence of meropenem incubated overnight by paper disk method; format: functional; conditions: read-out: IZ
# Escherichia coli [19] = test: Antibacterial activity against Escherichia coli KB366 expressing IMP-1 assessed as inhibition of bacterial growth at 100 ug in presence of meropenem incubated overnight by paper disk method; format: functional; conditions: read-out: IZ
# Pseudomonas aeruginosa [20] = test: Antibacterial activity against Pseudomonas aeruginosa KB367 expressing IMP-1 assessed as inhibition of bacterial growth at 30 ug in absence of meropenem incubated overnight by paper disk method; format: functional, organism-based; conditions: dose 30.0 µg
# Pseudomonas aeruginosa [21] = test: Antibacterial activity against Pseudomonas aeruginosa KB367 expressing IMP-1 assessed as inhibition of bacterial growth at 0.1 ug in absence of meropenem incubated overnight by paper disk method; format: functional, organism-based; conditions: dose 0.1 µg
# Escherichia coli [22] = test: Antibacterial activity against Escherichia coli KB366 expressing IMP-1 assessed as inhibition of bacterial growth at 10 ug in absence of meropenem incubated overnight by paper disk method; format: functional, organism-based; conditions: dose 10.0 µg
# [23] = Inhibition of bacterial Metallo-beta-lactamase IMP-1 using nitrocefin as substrate pre-incubated for 15 mins followed by substrate addition by microplate reader; set-up: species or system Bacteria
# Escherichia coli [24] = test: Antibacterial activity against Escherichia coli KB366 expressing IMP-1 assessed as inhibition of bacterial growth at 10 ug in presence of meropenem incubated overnight by paper disk method; format: functional; conditions: read-out: IZ
# Pseudomonas aeruginosa [25] = test: Antibacterial activity against Pseudomonas aeruginosa KB367 expressing IMP-1 assessed as inhibition of bacterial growth at 10 ug in absence of meropenem incubated overnight by paper disk method; format: functional, organism-based; conditions: dose 10.0 µg
# Pseudomonas aeruginosa [26] = test: Antibacterial activity against Pseudomonas aeruginosa KB367 expressing IMP-1 assessed as inhibition of bacterial growth at 1 ug in absence of meropenem incubated overnight by paper disk method; format: functional, organism-based; conditions: dose 1.0 µg
# Pseudomonas aeruginosa [27] = test: Antibacterial activity against Pseudomonas aeruginosa KB367 expressing IMP-1 assessed as inhibition of bacterial growth at 0.1 ug in presence of meropenem incubated overnight by paper disk method; format: functional, organism-based; conditions: dose 0.1 µg
# Escherichia coli [28] = test: Antibacterial activity against Escherichia coli KB366 expressing IMP-1 assessed as inhibition of bacterial growth at 0.01 ug in presence of meropenem incubated overnight by paper disk method; format: functional; conditions: dose 0.01 µg
# Escherichia coli [29] = test: Antibacterial activity against Escherichia coli KB366 expressing IMP-1 assessed as inhibition of bacterial growth at 0.01 ug in absence of meropenem incubated overnight by paper disk method; format: functional, organism-based; conditions: dose 0.01 µg
# Pseudomonas aeruginosa [30] = test: Antibacterial activity against Pseudomonas aeruginosa KB367 expressing IMP-1 assessed as inhibition of bacterial growth at 10 ug in presence of meropenem incubated overnight by paper disk method; format: functional; conditions: read-out: IZ
# Pseudomonas aeruginosa [31] = test: Antibacterial activity against Pseudomonas aeruginosa KB367 expressing IMP-1 assessed as inhibition of bacterial growth at 0.3 ug in presence of meropenem incubated overnight by paper disk method; format: functional, organism-based; conditions: dose 0.3 µg
# Pseudomonas aeruginosa [32] = test: Antibacterial activity against Pseudomonas aeruginosa KB367 expressing IMP-1 assessed as inhibition of bacterial growth at 100 ug in absence of meropenem incubated overnight by paper disk method; format: functional, organism-based; conditions: dose 100.0 µg
# Escherichia coli [33] = test: Antibacterial activity against Escherichia coli KB366 expressing IMP-1 assessed as inhibition of bacterial growth at 1 ug in absence of meropenem incubated overnight by paper disk method; format: functional, organism-based; conditions: dose 1.0 µg
# Escherichia coli [34] = test: Antibacterial activity against Escherichia coli KB366 expressing IMP-1 assessed as inhibition of bacterial growth at 0.3 ug in absence of meropenem incubated overnight by paper disk method; format: functional, organism-based; conditions: dose 0.3 µg
# Escherichia coli [35] = test: Antibacterial activity against Escherichia coli KB366 expressing IMP-1 assessed as inhibition of bacterial growth at 3 ug in absence of meropenem incubated overnight by paper disk method; format: functional, organism-based; conditions: dose 3.0 µg
# Escherichia coli [36] = test: Antibacterial activity against Escherichia coli KB366 expressing IMP-1 assessed as inhibition of bacterial growth at 3 ug in presence of meropenem incubated overnight by paper disk method; format: functional; conditions: read-out: IZ
# Pseudomonas aeruginosa [37] = test: Antibacterial activity against Pseudomonas aeruginosa KB367 expressing IMP-1 assessed as inhibition of bacterial growth at 0.3 ug in absence of meropenem incubated overnight by paper disk method; format: functional, organism-based; conditions: dose 0.3 µg
Structure (SMILES),inhibition zone (IZ) (Pseudomonas aeruginosa [1]),zone of inhibition at 1 µg/disc (Escherichia coli [2]),inhibition zone (IZ) (Escherichia coli [3]),inhibition zone (IZ) (Pseudomonas aeruginosa [4]),inhibition zone (IZ) (Pseudomonas aeruginosa [5]),inhibition zone (IZ) (Escherichia coli [6]),zone of inhibition at 3 µg/disc (Pseudomonas aeruginosa [7]),zone of inhibition at 0.03 µg/disc (Escherichia coli [8]),zone of inhibition at 100 µg/disc (Pseudomonas aeruginosa [10]),inhibition zone (IZ) (Pseudomonas aeruginosa [11]),inhibition zone (IZ) (Escherichia coli [12]),inhibition zone (IZ) (Pseudomonas aeruginosa [13]),inhibition zone (IZ) (Escherichia coli [14]),zone of inhibition at 30 µg/disc (Pseudomonas aeruginosa [15]),zone of inhibition at 0.1 µg/disc (Escherichia coli [16]),zone of inhibition at 30 µg/disc (Escherichia coli [17]),zone of inhibition at 0.3 µg/disc (Escherichia coli [18]),zone of inhibition at 100 µg/disc (Escherichia coli [19]),inhibition zone (IZ) (Pseudomonas aeruginosa [20]),inhibition zone (IZ) (Pseudomonas aeruginosa [21]),further results
CC/C=C/C(C(=O)[O-])=C(\CCC)C(=O)[O-].[Na+].[Na+],inactive,19 mm,inactive,inactive,inactive,inactive,7 mm,11 mm,23 mm,inactive,inactive,inactive,inactive,19 mm,13 mm,28 mm,16 mm,30 mm,inactive,inactive,inhibition zone (IZ) (Pseudomonas aeruginosa [9]; dose 1.0 µg): inactive; inhibition zone (IZ) (Escherichia coli [22]): inactive; IC50 [23]: 2.2 µg/mL; zone of inhibition at 10 µg/disc (Escherichia coli [24]): 26 mm; inhibition zone (IZ) (Pseudomonas aeruginosa [25]): inactive; inhibition zone (IZ) (Pseudomonas aeruginosa [26]): inactive; inhibition zone (IZ) (Pseudomonas aeruginosa [27]): inactive; inhibition zone (IZ) (Escherichia coli [28]): inactive; inhibition zone (IZ) (Escherichia coli [29]): inactive; zone of inhibition at 10 µg/disc (Pseudomonas aeruginosa [30]): 14 mm; inhibition zone (IZ) (Pseudomonas aeruginosa [31]): inactive; inhibition zone (IZ) (Pseudomonas aeruginosa [32]): inactive; inhibition zone (IZ) (Escherichia coli [33]): inactive; inhibition zone (IZ) (Escherichia coli [34]): inactive; inhibition zone (IZ) (Escherichia coli [35]): inactive; zone of inhibition at 3 µg/disc (Escherichia coli [36]): 21 mm; inhibition zone (IZ) (Pseudomonas aeruginosa [37]): inactive
CCCC/C(C(=O)[O-])=C(/C(=O)[O-])c1ccc(O)c(O)c1.[Na+].[Na+],inactive,15 mm,inactive,inactive,inactive,inactive,11 mm,9 mm,20 mm,inactive,inactive,inactive,inactive,18 mm,10 mm,27 mm,12 mm,31 mm,inactive,inactive,zone of inhibition at 1 µg/disc (Pseudomonas aeruginosa [9]): 9 mm; inhibition zone (IZ) (Escherichia coli [22]): inactive; IC50 [23]: 0.56 µg/mL; zone of inhibition at 10 µg/disc (Escherichia coli [24]): 22 mm; inhibition zone (IZ) (Pseudomonas aeruginosa [25]): inactive; inhibition zone (IZ) (Pseudomonas aeruginosa [26]): inactive; inhibition zone (IZ) (Pseudomonas aeruginosa [27]): inactive; inhibition zone (IZ) (Escherichia coli [28]): inactive; inhibition zone (IZ) (Escherichia coli [29]): inactive; zone of inhibition at 10 µg/disc (Pseudomonas aeruginosa [30]): 14 mm; inhibition zone (IZ) (Pseudomonas aeruginosa [31]): inactive; inhibition zone (IZ) (Pseudomonas aeruginosa [32]): inactive; inhibition zone (IZ) (Escherichia coli [33]): inactive; inhibition zone (IZ) (Escherichia coli [34]): inactive; inhibition zone (IZ) (Escherichia coli [35]): inactive; zone of inhibition at 3 µg/disc (Escherichia coli [36]): 19 mm; inhibition zone (IZ) (Pseudomonas aeruginosa [37]): inactive
CCCCC(C(=O)N1CCCCC1)=C(C(=O)O)c1ccc(O)c(O)c1,inactive,17 mm,inactive,inactive,inactive,inactive,12 mm,10 mm,16 mm,inactive,inactive,inactive,inactive,13 mm,12 mm,23 mm,15 mm,24 mm,inactive,inactive,zone of inhibition at 1 µg/disc (Pseudomonas aeruginosa [9]): 9 mm; inhibition zone (IZ) (Escherichia coli [22]): inactive; IC50 [23]: 0.55 µg/mL; zone of inhibition at 10 µg/disc (Escherichia coli [24]): 21 mm; inhibition zone (IZ) (Pseudomonas aeruginosa [25]): inactive; inhibition zone (IZ) (Pseudomonas aeruginosa [26]): inactive; inhibition zone (IZ) (Pseudomonas aeruginosa [27]): inactive; inhibition zone (IZ) (Escherichia coli [28]): inactive; inhibition zone (IZ) (Escherichia coli [29]): inactive; zone of inhibition at 10 µg/disc (Pseudomonas aeruginosa [30]): 12 mm; inhibition zone (IZ) (Pseudomonas aeruginosa [31]): inactive; inhibition zone (IZ) (Pseudomonas aeruginosa [32]): inactive; inhibition zone (IZ) (Escherichia coli [33]): inactive; inhibition zone (IZ) (Escherichia coli [34]): inactive; inhibition zone (IZ) (Escherichia coli [35]): inactive; zone of inhibition at 3 µg/disc (Escherichia coli [36]): 20 mm; inhibition zone (IZ) (Pseudomonas aeruginosa [37]): inactive
